# According to ChEMBL document CHEMBL5126571, “Development of pyrazolo[3,4-d]pyrimidin-4-one scaffold as novel CDK2 inhibitors: Design, synthesis, and biological evaluation” (Bioorg Med Chem Lett, 2022):
# Target: Cyclin-dependent kinase 2 (Homo sapiens, UniProt P24941)
# Assay: Binding affinity to CDK2 (unknown origin)
row,SMILES,Ki [nM]
1,CC(C)(C)n1nc(-c2cccc(NC(=O)/C(C#N)=C/c3ccc(F)cc3)c2)c2c(=O)[nH]cnc21,2870
2,CC(C)(C)n1nc(-c2cccc(NC(=O)/C(C#N)=C/C=C/c3ccccc3)c2)c2c(=O)[nH]cnc21,6250
3,CC(C)(C)n1nc(-c2cccc(NC(=O)/C(C#N)=C/c3ccccc3Br)c2)c2c(=O)[nH]cnc21,1310
4,CC(C)(C)n1nc(-c2cccc(NC(=O)/C(C#N)=C/c3ccccc3)c2)c2c(=O)[nH]cnc21,2200
5,CCCC/C=C(\C#N)C(=O)Nc1cccc(-c2nn(C(C)(C)C)c3nc[nH]c(=O)c23)c1,11600
6,CC(C)(C)n1nc(-c2cccc(NC(=O)/C(C#N)=C/c3cccc([N+](=O)[O-])c3)c2)c2c(=O)[nH]cnc21,2460
7,CC(C)(C)n1nc(-c2cccc(NC(=O)/C(C#N)=C/c3ccc([N+](=O)[O-])cc3)c2)c2c(=O)[nH]cnc21,1950
8,CC(C)(C)/C=C(\C#N)C(=O)Nc1cccc(-c2nn(C(C)(C)C)c3nc[nH]c(=O)c23)c1,2570
9,CC(C)(C)n1nc(-c2cccc(NC(=O)/C(C#N)=C/c3ccc(O)cc3)c2)c2c(=O)[nH]cnc21,520
10,CC(C)(C)n1nc(-c2cccc(NC(=O)/C(C#N)=C/c3cccc(C(F)(F)F)c3)c2)c2c(=O)[nH]cnc21,5590
11,CC(C)(C)n1nc(-c2cccc(NC(=O)/C(C#N)=C/c3ccccc3[N+](=O)[O-])c2)c2c(=O)[nH]cnc21,12300
12,CC(C)(C)n1nc(-c2cccc(NC(=O)/C(C#N)=C/c3cc([N+](=O)[O-])cc([N+](=O)[O-])c3)c2)c2c(=O)[nH]cnc21,1640
13,CC(C)(C)n1nc(-c2cccc(NC(=O)/C(C#N)=C/c3cccc(Br)c3)c2)c2c(=O)[nH]cnc21,14700
14,CC(C)(C)n1nc(-c2cccc(NC(=O)/C(C#N)=C/c3ccc(Br)cc3)c2)c2c(=O)[nH]cnc21,3630
15,COc1ccc(/C=C(\C#N)C(=O)Nc2cccc(-c3nn(C(C)(C)C)c4nc[nH]c(=O)c34)c2)cc1,9700
16,CC(C)(C)n1nc(-c2cccc(NC(=O)/C(C#N)=C/c3cccc(Cl)c3)c2)c2c(=O)[nH]cnc21,3100
17,CC(C)(C)n1nc(-c2cccc(NC(=O)/C(C#N)=C/c3ccccc3O)c2)c2c(=O)[nH]cnc21,350
18,CC(C)(C)n1nc(-c2cccc(NC(=O)/C(C#N)=C/c3ccc(C(=O)O)cc3)c2)c2c(=O)[nH]cnc21,1400
19,Cc1cc(NS(=O)(=O)c2ccc(Nc3n[nH]c4nc[nH]c(=O)c34)cc2)no1,4840

# System: MCF7
# Assay: Antiproliferative activity against human MCF7 cells by CCK-8 assay
# Type: functional, cell-based
row,SMILES,IC50 [µM]
1,CC(C)(C)n1nc(-c2cccc(NC(=O)/C(C#N)=C/c3ccccc3)c2)c2c(=O)[nH]cnc21,21.7
2,COc1cc([C@@H]2c3cc4c(cc3[C@@H](O[C@@H]3O[C@@H]5CO[C@@H](C)O[C@H]5[C@H](O)[C@H]3O)[C@H]3COC(=O)[C@H]23)OCO4)cc(OC)c1O [ETOPOSIDE],18.8

# System: MCF7
# Assay: Antiproliferative activity against human MCF7 cells at 4 uM by CCK-8 assay
# Type: functional
row,SMILES,inhibition at 4 µM [%]
1,CC(C)(C)n1nc(-c2cccc(NC(=O)/C(C#N)=C/c3ccccc3)c2)c2c(=O)[nH]cnc21,30
